Assay results taken from the supplement of paper PMC11061612.

Columns and labels:
Assay in all cases: combination Emax (second highest fraction inhibited in the dose matrix, 72 h); higher = more inhibition; extreme values may be limits of the assay
ES1 (Ewing's Sarcoma) = test system: ES1 (Ewing's Sarcoma)
Method in brief: (§1)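 Bliss excess equals the observed combination effect minus the expected value EA + EB − EA·EB, where EA and EB are the effects of each agent alone. Combination Emax is the second-highest inhibition within the matrix. Inhibition was scaled from CellTiter-Glo 2.0 luminescence, with 0 set by vehicle wells and 1 by blank wells, after 72 hours of two-drug dosing of cells plated in 1536-well plates.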

LN-18 (Glioblastoma) = test system: LN-18 (Glioblastoma)
Method in brief: as §1

MEL-JUSO (Melanoma) = test system: MEL-JUSO (Melanoma)
Method in brief: as §1

U251 (Low Grade Glioma) = test system: U251 (Low Grade Glioma)
Method in brief: as §1

ES8 (Ewing's Sarcoma) = test system: ES8 (Ewing's Sarcoma)
Method in brief: as §1

NCI-H2818 (Mesothelioma) = test system: NCI-H2818 (Mesothelioma)
Method in brief: as §1

[1] = test system: SW837 (Colorectal Carcinoma)
Method in brief: as §1

TC-71 (Ewing's Sarcoma) = test system: TC-71 (Ewing's Sarcoma)
Method in brief: as §1

[2] = test system: HDQ-P1 (Breast Carcinoma)
Method in brief: as §1

[3] = test system: TE-6 (Esophageal Squamous Cell Carcinoma)
Method in brief: as §1

WM-115 (Melanoma) = test system: WM-115 (Melanoma)
Method in brief: as §1

[4] = test system: GR-ST (B-Lymphoblastic Leukemia)
Method in brief: as §1

[5] = test system: KYSE-180 (Esophageal Squamous Cell Carcinoma)
Method in brief: as §1

WIL2-NS (Non-Cancerous) = test system: WIL2-NS (Non-Cancerous)
Method in brief: as §1

[6] = test system: DiFi (Colorectal Carcinoma)
Method in brief: as §1

[7] = test system: MKN28 (Gastric Carcinoma)
Method in brief: as §1

[8] = test system: K-562 (Chronic Myelogenous Leukemia)
Method in brief: as §1

[9] = test system: EVSA-T (Breast Carcinoma)
Method in brief: as §1

[10] = test system: P12-ICHIKAWA (T-Lymphoblastic Leukemia)
Method in brief: as §1

Row | SMILES | combination Emax (ES1 (Ewing's Sarcoma)) | combination Emax (LN-18 (Glioblastoma)) | combination Emax (MEL-JUSO (Melanoma)) | combination Emax (U251 (Low Grade Glioma)) | combination Emax (ES8 (Ewing's Sarcoma)) | combination Emax (NCI-H2818 (Mesothelioma)) | combination Emax [1] | combination Emax (TC-71 (Ewing's Sarcoma)) | combination Emax [2] | combination Emax [3] | combination Emax (WM-115 (Melanoma)) | combination Emax [4] | combination Emax [5] | combination Emax (WIL2-NS (Non-Cancerous)) | combination Emax [6] | combination Emax [7] | combination Emax [8] | combination Emax [9] | combination Emax [10]
1 | NC1(C(=O)N[C@@H](CCO)c2ccc(Cl)cc2)CCN(c2ncnc3[nH]ccc23)CC1 [Capivasertib] + Cn1cnc2c(F)c(Nc3ccc(Br)cc3Cl)c(C(=O)NOCCO)cc21 [Selumetinib] (first compound max 10 µM, 7x7, partner max 10 µM) | 0.52 | 0.603 | 0.545 | 0.494 | 0.533 | 0.318 | 0.603 | 0.438 | 0.596 | 0.736 | 0.885 | 0.678 | 0.48 | 0.771 | 0.905 | 0.241 | 0.425 | 0.947 | 0.748
2 | Cc1nc(Nc2ncc(C(=O)Nc3c(C)cccc3Cl)s2)cc(N2CCN(CCO)CC2)n1 [Dasatinib] + CC(=O)Nc1cccc(-n2c(=O)n(C3CC3)c(=O)c3c(Nc4ccc(I)cc4F)n(C)c(=O)c(C)c32)c1 [Trametinib] (first compound max 2 µM, 7x7, partner max 1 µM) | 0.0713 | 0.353 | 0.497 | 0.781 | 0.223 | 0.582 | 0.764 | 0.146 | 0.958 | 0.535 | 0.805 | 0.361 | 0.411 | 0.721 | 0.784 | 0.417 | 0.747 | 0.176 | 0.517
3 | COc1cc2ncnc(Nc3ccc(F)c(Cl)c3)c2cc1OCCCN1CCOCC1 [Gefitinib] + CC(C)n1c(=O)n(C)c2cnc3cc(F)c(-c4ccc(OCCCN5CCCCC5)nc4)cc3c21 [AZD1390] (first compound max 10 µM, 7x7, partner max 0.3 µM) | 0.353 | 0.146 | 0.114 | 0.0432 | 0.178 | 0.146 | 0.128 | 0.183 | 0.383 | 0.685 | 0.139 | 0.39 | 0.246 | 0.397 | 0.919 | 0.0764 | 0.13 | 0.27 | 0.144
4 | CS(=O)(=O)CCNCc1ccc(-c2ccc3ncnc(Nc4ccc(OCc5cccc(F)c5)c(Cl)c4)c3c2)o1 [Lapatinib] + C[C@@H](Oc1cc(-c2cnn(C3CCNCC3)c2)cnc1N)c1c(Cl)ccc(F)c1Cl [Crizotinib] (first compound max 10 µM, 7x7, partner max 10 µM) | 0.965 | 0.965 | 0.912 | 0.785 | 1 | 0.59 | 0.772 | 0.758 | 0.936 | 0.835 | 0.877 | 0.988 | 0.952 | 0.607 | 1 | 0.779 | 0.962 | 0.985 | 0.975
5 | CC(=O)c1c(C)c2cnc(Nc3ccc(N4CCNCC4)cn3)nc2n(C2CCCC2)c1=O [Palbociclib] + CC1(C)CCC(CN2CCN(c3ccc(C(=O)NS(=O)(=O)c4ccc(NCC5CCOCC5)c([N+](=O)[O-])c4)c(Oc4cnc5[nH]ccc5c4)c3)CC2)=C(c2ccc(Cl)cc2)C1 [Venetoclax] (first compound max 10 µM, 7x7, partner max 1 µM) | 0.56 | 0.383 | 0.143 | 0.153 | 0.461 | 0.203 | 0.0079 | 0.272 | 0.109 | 0.264 | 0.0976 | 0.715 | 0.188 | 0.727 | 0.47 | 0.0507 | 0.0413 | 0.209 | 0.671
6 | CC(=O)c1c(C)c2cnc(Nc3ccc(N4CCNCC4)cn3)nc2n(C2CCCC2)c1=O [Palbociclib] + Cc1c2c(nn1C)CSCc1cc(n(C)n1)CSc1cc(c3ccccc3c1)OCCCc1c(C(=O)O)n(C)c3c-2c(Cl)ccc13 [AZD5991] (first compound max 10 µM, 7x7, partner max 1 µM) | 0.917 | 0.477 | 0.305 | 0.297 | 0.65 | 0.367 | 0.161 | 0.586 | 0.263 | 0.425 | 0.293 | 0.719 | 0.638 | 0.737 | 0.548 | 0.133 | 0.132 | 0.967 | 0.83
7 | CC(=O)c1c(C)c2cnc(Nc3ccc(N4CCNCC4)cn3)nc2n(C2CCCC2)c1=O [Palbociclib] + Cn1cnc2c(F)c(Nc3ccc(Br)cc3Cl)c(C(=O)NOCCO)cc21 [Selumetinib] (first compound max 10 µM, 7x7, partner max 10 µM) | 0.616 | 0.359 | 0.425 | 0.297 | 0.823 | 0.208 | 0.532 | 0.396 | 0.289 | 0.425 | 0.415 | 0.726 | 0.203 | 0.74 | 0.751 | 0.3 | 0.237 | 0.287 | 0.77
8 | C[C@@H](c1ccc2nccn2c1)n1nnc2ncc(-c3cnn(C)c3)nc21 [Savolitinib] + CC1(C)CCC(CN2CCN(c3ccc(C(=O)NS(=O)(=O)c4ccc(NCC5CCOCC5)c([N+](=O)[O-])c4)c(Oc4cnc5[nH]ccc5c4)c3)CC2)=C(c2ccc(Cl)cc2)C1 [Venetoclax] (first compound max 1 µM, 7x7, partner max 1 µM) | 0.113 | 0.146 | 0.126 | 0.116 | 0.259 | 0.127 | 0.14 | 0.119 | 0.117 | 0.124 | 0.199 | 0.218 | 0.134 | 0.163 | 0.11 | 0.0564 | 0.155 | 0.201 | 0.188
9 | C[C@@H](c1ccc2nccn2c1)n1nnc2ncc(-c3cnn(C)c3)nc21 [Savolitinib] + Cc1c2c(nn1C)CSCc1cc(n(C)n1)CSc1cc(c3ccccc3c1)OCCCc1c(C(=O)O)n(C)c3c-2c(Cl)ccc13 [AZD5991] (first compound max 1 µM, 7x7, partner max 1 µM) | 0.743 | 0.202 | 0.183 | 0.217 | 0.292 | 0.16 | 0.124 | 0.412 | 0.2 | 0.308 | 0.185 | 0.145 | 0.278 | 0.0914 | 0.257 | 0.0861 | 0.159 | 1 | 0.29
10 | Cn1cnc2c(F)c(Nc3ccc(Br)cc3Cl)c(C(=O)NOCCO)cc21 [Selumetinib] + C=CCn1c(=O)c2cnc(Nc3ccc(N4CCN(C)CC4)cc3)nc2n1-c1cccc(C(C)(C)O)n1 [AZD1775] (first compound max 10 µM, partner max 1 µM) | 0.602 | 0.461 | 0.604 | 0.326 | 0.491 | 0.303 | 0.549 | 0.355 | 0.673 | 0.506 | 0.402 | 0.801 | 0.544 | 0.937 | 0.849 | 0.276 | 0.834 | 0.156 | 1
11 | Cn1cnc2c(F)c(Nc3ccc(Br)cc3Cl)c(C(=O)NOCCO)cc21 [Selumetinib] + CC(C)n1c(=O)n(C)c2cnc3cc(F)c(-c4ccc(OCCCN5CCCCC5)nc4)cc3c21 [AZD1390] (first compound max 10 µM, 7x7, partner max 0.3 µM) | 0.0951 | 0.157 | 0.349 | 0.141 | 0.263 | 0.138 | 0.567 | 0.237 | 0.248 | 0.388 | 0.411 | 0.225 | 0.0295 | 0.252 | 0.641 | 0.137 | 0.168 | 0.174 | 0.305
12 | Cn1cnc2c(F)c(Nc3ccc(Br)cc3Cl)c(C(=O)NOCCO)cc21 [Selumetinib] + CCN(CCO)CCCOc1ccc2c(Nc3cc(CC(=O)Nc4cccc(F)c4)[nH]n3)ncnc2c1 [AZD2811] (first compound max 10 µM, 7x7, partner max 1 µM) | 0.532 | 0.34 | 0.427 | 0.268 | 0.996 | 0.168 | 0.554 | 0.838 | 0.393 | 0.353 | 0.434 | 0.316 | 0.103 | 0.259 | 0.813 | 0.191 | 0.32 | 0.283 | 1
13 | Cn1cnc2c(F)c(Nc3ccc(Br)cc3Cl)c(C(=O)NOCCO)cc21 [Selumetinib] + C[C@@H]1COCCN1C2=NC(=NC(=C2)C3(CC3)[S@](=N)(=O)C)C4=C5C=CNC5=NC=C4 [AZD6738] (first compound max 10 µM, 7x7, partner max 10 µM) | 0.898 | 0.71 | 0.509 | 0.443 | 0.674 | 0.252 | 0.544 | 0.945 | 0.455 | 0.671 | 0.617 | 0.766 | 0.393 | 0.922 | 0.844 | 0.202 | 0.866 | 0.222 | 0.988
